Measured values reported in patent US20220288020A1, “METHOD OF TREATING NEOPLASTIC DISEASES WITH A CDC42-SPECIFIC INHIBITOR” (Children's Hospital Medical Center, priority 2019, published 2022).

Legend:
[1] = test system: MC38 mouse colon cancer cells; assay: Prophylactic CASIN treatment, syngeneic MC38 tumor model in C57BL/6 mice; type: in vivo
Protocol: FIG. 4. Prophylactic CASIN causes anti-tumor immunity. C57BL/6 mice were injected (i.p.) with vehicle or 30 mg/kg body weight of CASIN twice a day for one week and then 40 mg/kg body weight of CASIN once a day until the end of the experiment. One day after the first CASIN treatment, the mice were injected (s.c.) with MC38 (8×10^5). Tumor growth was monitored (A). Upon euthanasia, tumors were dissected and the expression of IFN-γ^+, IL-4^+ and/or IL-17^+ within CD4^+Foxp3^+ (B), CD4^+Foxp3^− (C), and CD8^+ (D) cells was analyzed by flow cytometry. n=7. Error bars indicate SD. **p<0.01; *p<0.05. In FIGS. 4(A)-(D), data for vehicle administration is the top line (furthest from the x-axis) in FIG. 4A and left side of each data representation in FIGS. 4(B)-(D); and data for CASIN administration is the bottom line (closest to the x-axis) in FIG. 4(A) and right side of each data representation in FIGS. 4(B)-(D).
(§1) The Cdc42 conditional knockout mice and CASIN were developed in CCHMC by Dr. Yi Zheng lab (Yang L, Wang L, Zheng Y. Gene targeting of Cdc42 and Cdc42GAP affirms the critical involvement of Cdc42 in filopodia induction, directed migration, and proliferation in primary mouse embryonic fibroblasts. Mol Biol Cell. 2006 November; 17(11):4675-85) (Liu W, Du W, Shang X, Wang L, Evelyn C, Florian M C, A Ryan M, Rayes A, Zhao X, Setchell K, Meller J, Guo F, Nassar N, Geiger H, Pang Q, Zheng Y. Rational identification of a Cdc42 inhibitor presents a new regimen for long-term hematopoietic stem cell mobilization. Leukemia. 2019 March; 33(3):749-761). In the examples below, the effects of Cdc42 deletion and CASIN on T-cell immunity against tumor growth of colorectal cancer cells and/or pancreatic cancer cells was evaluated. […]
C57BL/6 mice were injected (i.p.) with vehicle or 30 mg/kg body weight of CASIN twice a day for one week and then 40 mg/kg body weight of CASIN once a day until the end of the experiment. […] Tumor growth was monitored. […]

[2] = test system: MC38 mouse colon cancer cells; assay: Therapeutic CASIN treatment upon tumor onset, MC38 tumor model in C57BL/6 mice, with or without Anti-CD4/CD8 T-cell depletion; type: in vivo
Protocol: FIG. 5. Therapeutic CASIN treatment causes anti-tumor T-cell immunity. C57BL/6 mice were inoculated (s.c.) with MC38 (8×10^5) at day 1 and injected (i.p.) with Anti-CD4/CD8 neutralizing antibodies (5 mg/kg body weight for each antibody) or isotype control antibody once every 4 days starting at day 1. Starting from day 10 when tumor onset was observed, the mice were treated with vehicle or CASIN as described for FIG. 4 above. Tumor volume was monitored (A). At day 14, depletion of T-cells in peripheral blood from the mice treated with Anti-CD4/CD8 neutralizing antibodies was confirmed by flow cytometry (data not shown). Upon euthanasia, tumors were dissected from isotype control antibody-treated mice. The expression of IFN-γ^+ and IL-17^+ in CD4^+Foxp3^+ cells was analyzed by flow cytometry (B). CD3^+ T-cells were visualized by immunohistochemistry using anti-CD3 antibody (C). The expression of IFN-γ^+ and/or IL-17^+ in CD4^+Foxp3^− (D) and CD8^+ cells (E) was analyzed by flow cytometry. n=5. Error bars indicate SD. **p<0.01; *p<0.05. […]
as §1, with “Leukemia. 2019 March; 33(3):749-761).” left out
C57BL/6 mice were injected (s.c.) with MC38 (8×10^5) at day 1 and injected (i.p.) with Anti-CD4/CD8 neutralizing antibodies (5 mg/kg body weight for each antibody) or isotype control antibody once every 4 days starting at day 1. […] Tumor volume was monitored. […]

[3] = test system: Splenic CD4+ YFP+ Tregs from Cdc42+/- mice; assay: Stability of Cdc42+/- Tregs cultured with or without acetazolamide (flow cytometry, IFN-γ+ cells); type: cell-based, mouse; conditions: Splenic CD4+ YFP+ Tregs from Cdc42+/- mice cultured with AZA; FIG. 3E
Protocol: (§2) FIG. 3. […] (A, B) Treg-specific heterozygous deletion of Cdc42 upregulates CAI and alkalizes extracellular pH of Tregs. Splenic CD4^+ YFP^+ Tregs were flow-sorted from WT and Cdc42^+/− mice. CAI expression was detected by Q-PCR (A). Another aliquot of the cells were cultured with Anti-CD3/CD28 and IL-2 for 36 hrs. pH of the culture medium (pHe) was measured by a pH meter. (C, D) Extracellular alkalization destabilizes Tregs. Splenic CD4^+ YFP^+ Tregs from WT mice were cultured as described in B, with regular medium of pH 7.4 or medium of pH 7.56 (C). Alternatively, the cells were cultured with conditional medium (CM) from WT Treg culture or from Cdc42^+/− Treg culture (D). Percentages of IFN-γ^+ cells within Tregs (left) and non-Tregs (right) were analyzed by flow cytometry. (E) Inhibition of CAI by acetazolamide (AZA) rescues instability of Cdc42^+/− Tregs. […] Percentages of IFN-γ^+ cells within Tregs (left) and non-Tregs (right) were analyzed by flow cytometry. […] Three days after starting AZA injection, the mice were inoculated (s.c.) with MC38 (8×10^5) and tumor volume was recorded. n=4-7. […]
(§3) Cdc42^fl/+Foxp3^YFP-Cre and Cdc42^+/+Foxp3^YFP-Cre mice were inoculated (s.c.) with MC38 mouse colon cancer cells (8×10^5) or KPC mouse pancreatic cancer cells (8×10^5). Tumor volume was monitored. […] Quantitative real-time RT-PCR (Q-PCR) confirmed the upregulation of CAI in Cdc42^+/− Tregs (FIG. 3A). […]

[4] = test system: MC38 mouse colon cancer cells; assay: MC38 tumor growth in Cdc42+/- mice treated with AZA; type: in vivo; conditions: AZA 40 mg/kg i.p. once a day, started three days before MC38 (8×10^5) s.c.; vs Cdc42+/- + vehicle; FIG. 3F
Protocol: as §2, §3

Compound | tumor growth ([1]; CASIN i.p. 30 mg/kg twice a day for one week then 40 mg/kg once a day, started one day before MC38 s.c., vs vehicle, FIG. 4A) | Treg stability (IFN-γ+, IL-4+, IL-17+ within tumor CD4+Foxp3+ cells) ([1]; prophylactic CASIN, dissected tumors, flow cytometry, FIG. 4B) | effector T cells (tumor CD4+Foxp3- and CD8+ cells) ([1]; prophylactic CASIN, dissected tumors, flow cytometry, FIG. 4C, D) | tumor growth (tumor volume) ([2]; CASIN i.p. 30 mg/kg twice a day for one week then 40 mg/kg once a day from day 10 (tumor onset), isotype control antibody, FIG. 5A) | Treg stability (IFN-γ+ and IL-17+ in tumor CD4+Foxp3+ cells) ([2]; therapeutic CASIN, dissected tumors, flow cytometry, FIG. 5B) | effector T-cells (CD3+ T-cells, IFN-γ-producing CD4+Foxp3- and CD8+ cells) in tumors ([2]; therapeutic CASIN, immunohistochemistry and flow cytometry, FIG. 5C-E) | instability of Cdc42+/- Tregs (percentages of IFN-γ+ cells within Tregs) [3] | tumor growth (tumor volume) in Cdc42+/- mice [4]
OCCNC1CCCc2c1[nH]c1ccc(-c3ccccc3)cc21 (centres unmarked) [CASIN] | suppressing tumor growth | destabilizing Tregs | increasing effector T cells | inhibited tumor growth | Treg instability | increased effector T-cells |  | 
CC(=O)Nc1nnc(S(N)(=O)=O)s1 [acetazolamide] |  |  |  |  |  |  | rescued the instability | restores tumor growth
